Source: PubChem BioAssay (NCI)
Several values for one entry are separate records, joined by “and”; a condition that tells them apart may be missing. Equal entries are not always repeated.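 Tested at 5 concentrations; 48 h exposure; 96-well plates; endpoints linearly interpolated, else capped at highest concentration. GI50: concentration for 50% inhibition of growth. Definition used: TGI = concentration required for complete inhibition of growth.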

Assays:
Assay in all cases: NCI anticancer screen, dose series, 48 h
[1] = tested on: HS 578T breast
[2] = tested on: SK-OV-3 ovarian
[3] = tested on: SNB-19 CNS
[4] = tested on: MDA-MB-435
[5] = tested on: HCT-15 colon
[6] = tested on: TK-10 renal
[7] = tested on: K-562 leukemia
[8] = tested on: SF-268 CNS
[9] = tested on: SK-MEL-28 melanoma
[10] = tested on: SF-539 CNS

Compound	GI50 [1] [µM]	TGI [1] [µM]	GI50 [2] [µM]	TGI [2]	GI50 [3] [µM]	TGI [3] [µM]	GI50 [4] [µM]	TGI [4] [µM]	GI50 [5] [µM]	TGI [5]	GI50 [6] [µM]	TGI [6] [µM]	GI50 [7] [µM]	TGI [7]	GI50 [8] [µM]	TGI [8]	GI50 [9] [µM]	TGI [9]	GI50 [10]	TGI [10]
COc1ccc(-c2nn(-c3cccc(NC(=O)c4cccc(C(F)(F)F)c4)c3)cc2-c2ccncc2)cc1Cl	1.54	8.74	3.91	> 100 µM	5.7	> 100	0.343	2.03	2	> 100 µM	6.77	> 100	0.837	> 100 µM	4.08	> 100 µM	3.07	36 µM	1.77 µM	6.01 µM
OCC1OC(n2cnc3c2NC=NC[C@H]3O)CC1O (stereo not given in full)	–	> 500	> 588	474 µM and > 588 µM	–	500	–	> 500	> 588	500 µM and > 588 µM	–	> 500	> 588	474 µM and > 588 µM	> 588	500 µM and > 588 µM	> 588	500 µM and > 588 µM	405 µM and > 588 µM	461 µM and > 588 µM
COc1ccc2c(c1)/C(=C\c1c(Cl)n(C)c3ccccc13)C(=O)N2	1.44	8.12	0.86	14.5 µM	1.85	23	0.286	1.26	0.456	8.17 µM	9.26	34.2	3.71	> 100 µM	2.87	35.1 µM	13.5	> 55.4 µM	0.672 µM	3.33 µM
O=C(O)c1c[nH]c2c(OCc3ccccc3)c3ccccc3c(O)c2c1=O	33.2	70.1	23.7	85.6 µM	17.7	42.9	2.18	4.08	16.6	31.9 µM	22.8	43.4	3.2	> 100 µM	22.4	64 µM	19.3	36.9 µM	19.7 µM	36.4 µM
Cc1nn(-c2ccccc2)c2nc3c(nc12)C1=NCCN1C(c1ccc(Cl)cc1)N3 (stereo not given)	3.1	12.8	7.9	19.4 µM	9.91	26.9	1.85	3.74	2.89	9.75 µM	2.93	7.18	2.42	6.19 µM	5.61	17.6 µM	1.78	3.37 µM	1.94 µM	4.23 µM
CC(C(=O)O)/C(=C\c1ccc2c(c1)OCO2)C(=O)O (stereo not given)	–	> 100	–	> 100 µM	–	> 100	–	> 100	–	> 100 µM	–	> 100	–	> 100 µM	–	> 100 µM	–	> 100 µM	–	> 100 µM
COc1ccc(OC)c(/C=C2\COc3ccc(O)c(O)c3C2=O)c1	5.3	36.8	6.94	22.5 µM	3.09	11.1	1.97	5.48	1.3	6.5 µM	4	14.3	2.17	> 100 µM	2.19	10.8 µM	2.65	7.51 µM	2.23 µM	5.19 µM
O=C(Cc1ccccc1)NC(c1ccc(Cl)cc1)c1c(O)ccc2ccccc12 (stereo not given)	2.81	13.8	3.01	9.26 µM	3.25	13.8	2.91	10.7	2.83	10.5 µM	4.17	13.2	3.1	26.3 µM	4.25	16 µM	3.16	11.6 µM	2.53 µM	7.51 µM
NC1=CC(=O)c2nc3ccccc3c3ccnc1c23	0.766	5.73	12	> 52.9 µM	3.06	> 93.2	1.22	19	0.622	> 100 µM	6.54	42.5	4.26	> 100 µM	4.26	22.1 µM	11.8	32 µM	3.99 µM	57.1 µM
CSC1=Nc2c(c(C)c(C)n2COC(CO)CO)C2=NC(=O)CC(C)N12 (stereo not given)	> 100	> 100	> 100	> 100 µM	> 100	> 100	> 100	> 100	> 100	> 100 µM	> 100	> 100	> 100	> 100 µM	> 100	> 100 µM	> 100	> 100 µM	> 100 µM	> 100 µM
H-HIIKKIRTWYRKAWHVLGKV-NH2	3.56	18.7	6.36	22.2 µM	18.3	62	5.15	65.9	4.24	64.7 µM	3.24	15.6	6.56	> 100 µM	3.43	19.8 µM	2.61	7.66 µM	2.14 µM	5.31 µM
O=C(O)CP(=O)(O)O	–	> 100	–	> 100 µM	–	> 100	–	> 100	–	> 100 µM	–	> 100	–	> 100 µM	–	> 100 µM	–	> 100 µM	–	> 100 µM
C=C(C)[C@@H]1CC[C@]2(C(=O)O)CC[C@]3(C)[C@H](CC[C@@H]4[C@@]5(C)C/C(=C/c6ccc(OC)cc6)C(=O)C(C)(C)[C@@H]5CC[C@]43C)[C@@H]12	2.65	9.03	3.29	16.1 µM	3.07	17	1.84	4.02	1.79	4.4 µM	2.6	20.7	2.21	> 100 µM	2.85	17.4 µM	1.91	3.72 µM	1.94 µM	4.16 µM
O=C(NC1CCCCC1)NS(=O)(=O)c1ccc(-n2nc3c(c2-c2ccc(Cl)cc2)Cc2ccccc2-3)cc1	5.03	39.2	31.6	> 100 µM	43.7	> 100	8.27	28.1	7.79	31.2 µM	13.3	26.9	2.15	5.89 µM	20.1	45.6 µM	21.9	50.5 µM	11.2 µM	27.7 µM
CC1(C)N=C(N)N=C(N)N1c1cccc(CCCCOc2ccccc2)c1	10.2	37.3	1.91	> 100 µM	0.326	> 77.4	< 0.0194	25	3.01	> 100 µM	0.197	62.6	0.05	> 100 µM	0.0558	22.9 µM	0.521	20.6 µM	0.127 µM	17 µM
C=CC[C@@H]1/C=C(\C)C[C@H](C)C[C@H](OC)[C@H]2O[C@@](O)(C(=O)C(=O)N3CCCC[C@H]3C(=O)O[C@H](/C(C)=C/C3CC[C@@H](O)[C@H](OC)C3)[C@H](C)[C@@H](O)CC1=O)[C@H](C)C[C@@H]2OC (stereo not given in full)	21.9	65.9	16.7	31.2 µM	15.6	30.4	16.2	37.7	17.2	38.1 µM	14.3	27.8	18.7	52 µM	13.8	27.3 µM	15.2	29.2 µM	17.5 µM	34 µM
CCC(c1ccc2cc(O)ccc2c1)C(C)(C)C(=O)O (stereo not given)	–	> 100	–	> 100 µM	–	> 100	–	> 100	–	> 100 µM	–	> 100	–	> 100 µM	–	> 100 µM	–	> 100 µM	–	> 100 µM
Brc1ccccc1C=NC12CC3CC(CC(C3)C1)C2	–	> 100	–	> 100 µM	–	> 100	–	> 100	–	> 100 µM	–	> 100	–	> 100 µM	–	> 100 µM	–	> 100 µM	–	> 100 µM
CC(=O)OC1Oc2cc(C)c(C)cc2-c2oc(=O)c(-c3ccc(F)cc3)cc21 (stereo not given)	8.56	68.6	4.38	54 µM	11.6	> 100	1.59	4.21	2.68	19.1 µM	17.1	71.4	3.01	12.3 µM	9.32	> 100 µM	6.89	45.7 µM	7.1 µM	> 100 µM
N=c1n(Cc2ccccc2)c(N)cc(=O)n1Cc1ccccc1	1.04	–	2.99	8.44 µM	5.04	18.2	3.54	13.8	3.49	12.3 µM	2.22	7.47	3.82	> 100 µM	1.37	3.86 µM	3.58	11.7 µM	1.96 µM	4.25 µM
S=C(c1ccc2c(c1)OCO2)N1CCN(c2cccc(Cl)c2)CC1	0.391	3.54	2.91	> 93.9 µM	3.13	> 100	0.182	0.607	0.524	> 69.3 µM	4.55	> 100	0.318	> 41.8 µM	4.65	> 100 µM	1.02	> 100 µM	1.1 µM	8.13 µM
CCOC(=O)c1c(Cl)c2c(n1Cc1cccc(OC)c1)-c1oncc1CC2	1.21	9.45	3.36	> 100 µM	4.41	> 100	0.298	15.6	0.836	> 100 µM	6.59	> 100	0.397	> 100 µM	9.31	> 100 µM	4.89	> 100 µM	2.12 µM	10.6 µM
Cc1[nH]nc2ccc3nc(-c4ccc5[nH]ncc5c4)c4c(c3c12)CCCC4	1.34	12.5	0.243	0.94 µM	2.62	12.1	1.23	12.9	0.638	12.6 µM	1.12	20	1.7	> 100 µM	1.97	17.8 µM	2.09	9.54 µM	1.62 µM	8.44 µM
Nc1ccc(-c2nc3ccccc3o2)cc1S	16.4	63.8	23.2	65.1 µM	22.9	81.3	17.8	36.9	16.5	30.3 µM	11.6	29	19	> 100 µM	15	34.5 µM	24.9	58.8 µM	17.6 µM	31.4 µM
COC1=CC(c2ccc[nH]2)=N/C1=C\c1[nH]c(C)c(C(C)=O)c1C	0.552	> 100	> 25.9	> 100 µM	24.2	> 100	0.299	> 100	0.21	2.15 µM	1.06	> 63.5	3.28	> 45.4 µM	0.854	> 100 µM	2.46	> 100 µM	2.15 µM	54.4 µM
CNC(=O)NC(CCCCNC(=O)OCc1ccccc1)C(=O)OCc1ccccc1 (stereo not given)	–	> 100	–	> 100 µM	–	> 100	–	39.5	–	> 100 µM	–	99	–	89.4 µM	–	> 100 µM	–	41.5 µM	–	49.9 µM
